From patent US6048874A, “Parenteral metolazone formulations” (priority 1999, dated 2000)
Values after ≈ are worked out from the molar mass of the structure shown. Values joined by “and” are separate entries in the source; they are usually repeats but may differ in a detail not shown here. Identical values can stand only once.

How the values were obtained:
[1] = cited from earlier work
[2] = diuretic; cited from earlier work
[3] = Apparent equilibrium solubility redetermined, UV analysis; assay type: physicochemical; settings: 65% w/v propylene glycol/15% w/v ethyl alcohol/water, UV 235 nm
Method: (§1) The apparent equilibrium solubility was redetermined more accurately as follows. A 300 g quantity of ethyl alcohol (95% v/v in water) and 1300 g of propylene glycol were added to a 2000 ml volumetric flask and mixed well. Next, purified water was added q.s. to 2000 ml. This is the solvent.
(§2) Nine 30 ml amber bottles were filled with 25 ml of the solvent and 400 mg of metolazone and mixed on a wrist arm shaker for 24 hours (3 bottles), 48 hours (3 bottles), and 72 hours (3 bottles). The samples were filtered through a membrane filter (Whatman 25 mm 601X Nylon Filter (0.45 μm)). The concentration of the samples was determined by HPLC and by UV analysis.
The sample concentrations were measured by the UV absorbance at 235 nm using an UV/VIS spectrophotometer (HP 8453, available from Hewlett-Packard, Palo Alto, Calif.).

[4] = Apparent equilibrium solubility, spectrophotometric assay at 346 nm; assay type: physicochemical; settings: aqueous propylene glycol/ethanol, organic solvent or mixture
Method: The apparent equilibrium solubility of metolazone in an aqueous solvent of 65% w/v propylene glycol/15% w/v ethyl alcohol (95% v/v in water) was determined as described below.
A 250 mg quantity of metolazone was equilibrated with 20 ml of a solvent consisting of 65% w/v propylene glycol, 15% w/v ethyl alcohol (95% v/v in water), and water for 24 hours at room temperature on a wrist action shaker. […] After equilibration, the solution was filtered through a 0.45 μm filter, diluted, and assayed spectrophotometrically at 346 nm.

[5] = cited from earlier work; remark: listed apart in the source
[6] = Apparent equilibrium solubility redetermined, HPLC analysis; assay type: physicochemical; settings: 65% w/v propylene glycol/15% w/v ethyl alcohol/water
Method: as §1, §2
The sample concentrations were analyzed by an HPLC system (HP 1100, available from Hewlett-Packard, Palo Alto, Calif.) equipped with a C18 column and an UV detector set at 230 nm. The mobile phase consisted of water and methanol at a ratio of 62/38 (v/v) and was used at a flow rate of 1.5 ml/minute.

[7] = cited from earlier work; remark: listed apart in the source

solubility thermodynamic at 24 h ([3]; aqueous propylene glycol/ethanol, organic solvent or mixture, shaken 24 hrs, read-out: Concentration of Metolazone, UV (apparent equilibrium solubility)): 8.09 mg/mL (≈ 22.1 mM)
solubility thermodynamic at 48 h ([3]; aqueous propylene glycol/ethanol, organic solvent or mixture, shaken 48 hrs, read-out: Concentration of Metolazone, UV (apparent equilibrium solubility)): 7.58 mg/mL (≈ 20.7 mM)
solubility thermodynamic at 72 h ([3]; aqueous propylene glycol/ethanol, organic solvent or mixture, shaken 72 hrs, read-out: Concentration of Metolazone, UV (apparent equilibrium solubility)): 7.3 mg/mL (≈ 20 mM)
Concentration of Metolazone, UV (apparent equilibrium solubility) ([3]; shaken 24 hrs, 1440 min): 7.54 mg/mL and 7.41 mg/mL
Concentration of Metolazone, UV (apparent equilibrium solubility) ([3]; shaken 48 hrs, 2880 min): 7.56 mg/mL and 7.43 mg/mL
Concentration of Metolazone, UV (apparent equilibrium solubility) ([3]; shaken 72 hrs, 4320 min): 7.31 mg/mL and 7.55 mg/mL
solubility thermodynamic at 24 h ([4]; 65% w/v propylene glycol, 15% w/v ethyl alcohol (95% v/v in water), water, 24 hours, room temperature, spectrophotometric 346 nm): 8.36 mg/mL (≈ 22.9 mM)
solubility thermodynamic ([4]; aqueous 65% w/v propylene glycol, 15% w/v ethyl alcohol, read-out: apparent equilibrium solubility limit): ~8 mg/mL (≈ 21.9 mM)
solubility thermodynamic at 24 h ([6]; aqueous propylene glycol/ethanol, organic solvent or mixture, shaken 24 hrs, read-out: Concentration of Metolazone, HPLC (apparent equilibrium solubility)): 7.9 mg/mL (≈ 21.6 mM)
solubility thermodynamic at 48 h ([6]; aqueous propylene glycol/ethanol, organic solvent or mixture, shaken 48 hrs, read-out: Concentration of Metolazone, HPLC (apparent equilibrium solubility)): 7.81 mg/mL (≈ 21.3 mM)
solubility thermodynamic at 72 h ([6]; aqueous propylene glycol/ethanol, organic solvent or mixture, shaken 72 hrs, read-out: Concentration of Metolazone, HPLC (apparent equilibrium solubility)): 7.61 mg/mL (≈ 20.8 mM)
Concentration of Metolazone, HPLC (apparent equilibrium solubility) ([6]; shaken 24 hrs, 1440 min): 7.73 mg/mL and 7.65 mg/mL
Concentration of Metolazone, HPLC (apparent equilibrium solubility) ([6]; shaken 48 hrs, 2880 min): 7.68 mg/mL and 7.66 mg/mL
Concentration of Metolazone, HPLC (apparent equilibrium solubility) ([6]; shaken 72 hrs, 4320 min): 7.68 mg/mL and 7.91 mg/mL
SMILES: Cc1ccccc1N1C(=O)c2cc(S(N)(=O)=O)c(Cl)cc2NC1C (stereo not shown) [Metolazone, 7-chloro-1,2,3,4-tetrahydro-2-methyl-3-(2-methylphenyl)-4-oxo-6-quinazolinesulfonamide]
solubility in water [1]: about 0.02 mg/ml
potency, on a weight basis, vs quinethazone or hydrochlorothiazide [2]: greater potency
pH of aqueous solution sufficient to solubilize metolazone ([5]; aqueous solution, alkali hydroxides): about 11
chemical stability at high pH ([5]; pH of about 11): chemically unstable
decomposition when exposed to light [7]: decompose when exposed to light
